Key:
COX-2 = assay: Evaluation of COX-2 activity in vitro (PGE2 ELISA, recombinant enzyme); assay type: biochemical, human or murine; details: arachidonic acid 10 μM, pH 8.0, pre-incubation 10-20 minutes
Experimental: The COX-2 inhibition activity of the compounds of this invention illustrated in the Examples was determined by the following methods.
(§1) a. Preparation of recombinant COX baculoviruses
(§2) Recombinant COX-1 and COX-2 were prepared as scribed by Gierse et al, [J. Biochem., 305, 479-84 (1995)]. […] Recombinant baculoviruses were isolated by transfecting 4 μg of baculovirus transfer vector DNA into SF9 insect cells (2×10^8) along with 200 ng of linearized baculovirus plasmid DNA by the calcium phosphate method. See M. D. Summers and G. E. Smith, A Manual of Methods for Baculovirus Vectors and Insect Cell Culture Procedures, Texas Agric. Exp. Station Bull. 1555 (1987). Recombinant viruses were purified by three rounds of plaque purification and high titer (10^7 -10^8 pfu/mL) stocks of virus were prepared. For large scale production, SF9 insect cells were infected in 10 liter fermentors (0.5×10^6 /mL) with the recombinant baculovirus stock such that the multiplicity of infection was 0.1. After 72 hours the cells were centrifuged and the cell pellet homogenized in Tris/Sucrose (50 mM: 25%, pH 8.0) containing 1% 3-[(3-cholamidopropyl)dimethylammonio]-1-propanesulfonate (CHAPS). The nomogenate was centrifuged at 10,000×G for 30 minutes, and the resultant supernatant was stored at -80° C. before being assayed for COX activity.
(§3) COX activity was assayed as PGE2 formed/μg protein/time using an ELISA to detect the prostaglandin released. CHAPS-solubilized insect cell membranes containing the appropriate COX enzyme were incubated in a potassium phosphate buffer (50 mM, pH 8.0) containing epinephrine, phenol, and heme with the addition of arachidonic acid (10 μM). […] Any reaction between the arachidonic acid and the enzyme was stopped after ten minutes at 37° C./room temperature by transferring 40 μl of reaction mix into 160 μl ELISA buffer and 25 μM indomethacin. The PGE2 formed was measured by standard ELISA technology (Cayman Chemical).

COX-1 = assay: Evaluation of COX-1 activity in vitro (PGE2 ELISA, recombinant enzyme); assay type: biochemical, human or murine; details: arachidonic acid 10 μM, pH 8.0, pre-incubation 10-20 minutes
Experimental: as §1, §2, §3

| IC50 (COX-2) [µM] | IC50 (COX-1) [µM] | Structure (SMILES) |
| --- | --- | --- |
| 0.1 | > 100 | NS(=O)(=O)c1ccc(-c2c(-c3ccccc3)noc2CCCO)cc1 [Example 1o, 4-[5-(3-hydroxypropyl)-3-phenylisoxazol-4-yl]benzenesulfonamide] |
| 3 | > 100 | COc1ccc(-c2noc(C)c2-c2ccc(S(N)(=O)=O)cc2)cc1F [Example 4, 4-[3-(3-Fluoro-4-methoxyphenyl)-5-methylisoxazol-4-yl]benzenesulfonamide] |
| < 0.1 | 90.5 | Cc1onc(-c2ccc(Cl)cc2)c1-c1ccc(S(N)(=O)=O)cc1 [Example 4a, 4-[3-(4-chlorophenyl)-5-methyl-isoxazol-4-yl]benzenesulfonamide] |
| < 0.1 | > 100 | Cc1onc(-c2ccc(F)cc2)c1-c1ccc(S(N)(=O)=O)cc1 [Example 4b, 4-[3-(4-fluorophenyl)-5-methyl-isoxazol-4-yl]benzenesulfonamide] |
| < 0.1 | 66.5 | Cc1ccc(-c2noc(C)c2-c2ccc(S(N)(=O)=O)cc2)cc1F [Example 4c, 4-[3-(3-fluoro-4-methylphenyl)-5-methyl-isoxazol-4-yl]benzenesulfonamide] |
| < 0.1 | 44 | Cc1ccc(-c2noc(C)c2-c2ccc(S(N)(=O)=O)cc2)cc1Cl [Example 4d, 4-[3-(3-chloro-4-methylphenyl)-5-methyl-isoxazol-4-yl]benzenesulfonamide] |
| 2 | > 100 | Cc1onc(-c2cccnc2)c1-c1ccc(S(N)(=O)=O)cc1 [Example 4e, 4-[5-methyl-3-(3-pyridyl)isoxazol-4-yl]benzenesulfonamide] |
| > 100 | > 100 | Cc1onc(-c2ccncc2)c1-c1ccc(S(N)(=O)=O)cc1 [Example 4f, 4-[5-methyl-3-(4-pyridyl)-isoxazol-4-yl]benzenesulfonamide] |
| 4 | > 100 | Cc1onc(-c2ccccc2)c1-c1ccc(S(C)(=O)=O)cc1 [Example 5, 5-Methyl-4-[4-(methylsulfonyl)phenyl]-3-phenylisoxazole] |
| 35.7 | > 100 | COc1ccc(-c2noc(CC(=O)O)c2-c2ccc(S(C)(=O)=O)cc2)cc1F [Example 6, [3-[3-Fluoro-4-methoxyphenyl]-4-[4-(methylsulfonyl)phenyl]isoxazol-5-yl]acetic acid] |
| 86.7 | > 100 | COc1ccc(-c2noc(C)c2-c2ccc(S(C)(=O)=O)cc2)cc1Cl [Example 7, 3-(3-Chloro-4-methoxyphenyl)-5-methyl-4-[4-methylsulfonylphenyl]isoxazole] |
| > 100 | > 100 | CS(=O)(=O)c1ccc(-c2c(-c3ccccc3)noc2CC(=O)O)cc1 [Example 8, [4-[4-(methylsulfonyl)phenyl]-3-phenylisoxazol-5-yl]acetic acid] |
| 2.5 | > 100 | NS(=O)(=O)c1ccc(-c2c(-c3ccccc3)noc2O)cc1 [Example 12, 4-[5-Hydroxy-3-phenylisoxazol-4-yl]benzenesulfonamide] |
| 0.1 | 59 | CC(C)c1noc(-c2ccccc2)c1-c1ccc(S(N)(=O)=O)cc1 [Example 15, 4-[3-isopropyl-5-phenylisoxazol-4-yl]benzenesulfonamide] |
| 3.1 | > 100 | CCCc1noc(-c2ccccc2)c1-c1ccc(S(N)(=O)=O)cc1 [Example 16, 4-[5-Phenyl-3-propylisoxazol-4-yl]benzenesulfonamide] |
| 0.6 | > 100 | CCCCc1noc(-c2ccccc2)c1-c1ccc(S(N)(=O)=O)cc1 [Example 18, 4-[3-Butyl-5-phenylisoxazol-4-yl]benzenesulfonamide] |
| 8.7 | > 100 | Cc1ccc(-c2onc(C)c2-c2ccc(S(N)(=O)=O)cc2)cc1 [Example 19, 4-[3-Methyl-5-(4-methylphenyl)isoxazol-4-yl]benzenesulfonamide] |
| 4.7 | > 100 | Cc1noc(-c2ccc(Cl)cc2)c1-c1ccc(S(N)(=O)=O)cc1 [Example 20, 4-[5-(4-chlorophenyl)-3-methylisoxazol-4-yl]benzenesulfonamide] |

| IC50 (COX-2) [µM] | IC50 (COX-1) [µM] | Structure (SMILES) |
| --- | --- | --- |
| 5.2 | > 100 | Cc1noc(-c2ccc(F)cc2)c1-c1ccc(S(N)(=O)=O)cc1 [Example 21, 4-[5-(4-fluorophenyl)-3-methylisoxazol-4-yl]benzenesulfonamide] |
| 5.3 | > 100 | Cc1noc(-c2ccc(S(C)(=O)=O)cc2)c1-c1ccccc1 [Example 22, 3-Methyl-5-(4-methylsulfonylphenyl)-4-phenylisoxazole] |
| 0.2 | 56 | Cc1noc(-c2ccc(S(N)(=O)=O)cc2)c1-c1ccccc1 [Example 23, 4-[3-Methyl-4-phenylisoxazol-5-yl]benzenesulfonamide] |
| 79 | > 100 | NS(=O)(=O)c1ccc(-c2c(CO)noc2-c2ccccc2)cc1 [Example 25, 4-[3-Hydroxymethyl-5-phenylisoxazol-4-yl]benzenesulfonamide] |
| 46 | > 100 | Cc1noc(-c2ccccc2)c1-c1ccc(S(C)(=O)=O)cc1 [Example 27, 3-Methyl-4-(4-methylsulfonylphenyl)-5-phenylisoxazole] |
| 0.1 | > 100 | NS(=O)(=O)c1ccc(-c2c(CC(O)c3ccc(Cl)cc3)noc2-c2ccccc2)cc1 (stereo not drawn) [Example 28, 4-[3-[2-(4-Chlorophenyl)-2-hydroxyethyl]-5-phenylisoxazol-4-yl]benzenesulfonamide] |
| < 0.1 | 41 | CCc1noc(-c2ccc(F)cc2)c1-c1ccc(S(N)(=O)=O)cc1 [Example 30, 4-[3-Ethyl-5-(4-fluorophenyl)isoxazol-4-yl]benzenesulfonamide] |
| 1.3 | > 100 | CCc1noc(-c2cccc(F)c2)c1-c1ccc(S(N)(=O)=O)cc1 [Example 31, 4-[3-Ethyl-5-(3-fluorophenyl)isoxazol-4-yl]benzenesulfonamide] |
| < 0.1 | 26 | CCc1noc(-c2ccccc2F)c1-c1ccc(S(N)(=O)=O)cc1 [Example 33, 4-[3-Ethyl-5-(2-fluorophenyl)isoxazol-4-yl]benzenesulfonamide] |
| 5.1 | > 100 | NS(=O)(=O)c1ccc(-c2c(-c3ccccc3)noc2COCC(=O)O)cc1 [Example 35, [[4-[4-(Aminosulfonyl)phenyl]-3-phenylisoxazol-5-yl]-methoxy]acetic acid] |
| 1.5 | > 100 | NS(=O)(=O)c1ccc(-c2c(-c3ccccc3)noc2CCCC(=O)O)cc1 [Example 36] |
| 20 | > 100 | N#Cc1onc(-c2ccccc2)c1-c1ccc(S(N)(=O)=O)cc1 [Example 37, 4-[5-Cyano-3-phenylisoxazol-4-yl]benzenesulfonamide] |
| < 0.1 | > 100 | NS(=O)(=O)c1ccc(-c2c(-c3ccccc3)noc2Cl)cc1 [Example 38, 4-[5-Chloro-3-phenylisoxazol-4-yl]benzenesulfonamide] |
| 0.9 | > 100 | NS(=O)(=O)c1ccc(-c2c(-c3ccccc3)noc2OS(=O)(=O)C(F)(F)F)cc1 [Example 39, 4-[5-Trifluoromethansulfonoxy-3-phenylisoxazol-4-yl]benzenesulfonamide] |
| 91 | 2.3 | CSc1ccc(-c2noc(C)c2-c2ccncc2)cc1 [Example 40, [5-Methyl-3-(4-methylthiophenyl)isoxazol-4-yl]-4-pyridine] |
| 57.5 | 81 | Cc1onc(-c2ccc(S(N)(=O)=O)cc2)c1-c1ccccc1 [Example 41, 4-[5-Methyl-4-phenylisoxazol-3-yl]benzenesulfonamide] |
| 22.5 | > 100 | Cc1onc(-c2cc(F)cc(F)c2)c1-c1ccc(S(N)(=O)=O)cc1 [Example 42, 4-[3-(3,5-Difluorophenyl)-5-methylisoxazol-4-yl]benzenesulfonamide] |
| 0.6 | > 100 | Cc1onc(-c2ccc(Br)cc2)c1-c1ccc(S(N)(=O)=O)cc1 [Example 43, 4-[3-(4-Bromophenyl)-5-methyl-isoxazol-4-yl]benzenesulfonamide] |

| Structure (SMILES) | IC50 (COX-2) [µM] | IC50 (COX-1) [µM] |
| --- | --- | --- |
| CCc1noc(-c2ccc(C)cc2)c1-c1ccc(S(N)(=O)=O)cc1 [Example 17, 4-[3-Ethyl-5-(4-methylphenyl)isoxazol-4-yl]benzenesulfonamide] | 2.1 | > 100 |
| Cc1noc(-c2cccc(Cl)c2)c1-c1ccc(S(N)(=O)=O)cc1 [Example 24, 4-[5-(3-Chlorophenyl)-3-methylisoxazol-4-yl]benzenesulfonamide] | 8.4 | > 100 |
| NS(=O)(=O)c1ccc(-c2c(CC(=O)O)noc2-c2ccccc2)cc1 [Example 26, 4-(4-Aminosulfonylphenyl)-5-phenyl-isoxazole-3-acetic acid] | 69.5 | > 100 |

Source: patent US5859257A, “Isoxazole compounds as cyclooxygenase inhibitors” (G. D. Searle & Co., priority 1996, dated 1999)
